# Laboratory results reported in patent US11492340B2 (priority 2017, dated 2022).
# Several values for one entry are separate records, joined by “and”; a condition that tells them apart may be missing. Equal entries are not always repeated. Where two headings read alike, the source gives them in different places.
# Experiments:
# [1] = biological target: T1, isopropyl phosphate-aged eeAChE (Electrophorus electricus, UniProt O42275); format: biochemical, electric eel
# T1 construct: purchased Sigma Aldrich
# T1 sequence (O42275 24-633): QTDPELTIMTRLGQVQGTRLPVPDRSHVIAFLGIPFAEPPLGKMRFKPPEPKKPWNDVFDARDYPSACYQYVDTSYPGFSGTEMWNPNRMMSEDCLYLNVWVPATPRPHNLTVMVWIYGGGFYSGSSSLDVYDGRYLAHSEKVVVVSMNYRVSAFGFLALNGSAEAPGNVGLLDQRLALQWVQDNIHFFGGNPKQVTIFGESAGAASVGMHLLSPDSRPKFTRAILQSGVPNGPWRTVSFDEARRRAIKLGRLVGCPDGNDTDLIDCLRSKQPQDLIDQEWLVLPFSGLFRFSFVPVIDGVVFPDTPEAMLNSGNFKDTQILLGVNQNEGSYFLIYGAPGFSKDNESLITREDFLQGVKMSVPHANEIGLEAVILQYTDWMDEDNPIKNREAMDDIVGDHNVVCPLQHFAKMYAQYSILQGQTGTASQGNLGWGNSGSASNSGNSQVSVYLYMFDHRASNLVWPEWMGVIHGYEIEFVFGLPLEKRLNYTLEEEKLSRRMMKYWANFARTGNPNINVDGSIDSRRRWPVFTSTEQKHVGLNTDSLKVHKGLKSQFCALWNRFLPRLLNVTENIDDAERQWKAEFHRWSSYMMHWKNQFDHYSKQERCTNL
# [2] = biological target: T2, methylphosphonate-aged AChE (Electrophorus electricus, UniProt O42275); format: biochemical, electric eel
# T2 construct: purchased Sigma Aldrich
# T2 sequence (O42275 24-633): as above
# [3] = biological target: T3, methylphosphonate-aged eeAChE (Electrophorus electricus, UniProt O42275); format: biochemical, electric eel; settings: for screening efficacy, relative activity (FIG. 3B), in words: pH 8
# T3 construct: purchased Sigma Aldrich
# T3 sequence (O42275 24-633): as above
# [4] = biological target: T1, isopropyl phosphate-aged eeAChE; format: biochemical, electric eel; remark: listed apart in the source
# [5] = biological target: T3, methylphosphonate-aged eeAChE; test: biochemical; parameters: species or system electric eel
# [6] = biological target: T1, isopropyl phosphate-aged eeAChE; test: biochemical; parameters: species or system electric eel
# [7] = biological target: T1, isopropyl phosphate-aged eeAChE; format: biochemical, electric eel; settings: pH 8
# [8] = biological target: T3, methylphosphonate-aged eeAChE; format: biochemical, electric eel; settings: pH 8
# [9] = biological target: T3, methylphosphonate-aged eeAChE; format: biochemical, electric eel
# [10] = biological target: T1, isopropyl phosphate-aged eeAChE; format: biochemical, electric eel; remark: listed apart in the source
# [11] = biological target: isopropyl phosphate-aged (DFP-treated) recombinant huAChE (Homo sapiens, UniProt P22303); format: biochemical; settings: pH 9
# Chain of isopropyl phosphate-aged (DFP-treated) recombinant huAChE (P22303 32-614): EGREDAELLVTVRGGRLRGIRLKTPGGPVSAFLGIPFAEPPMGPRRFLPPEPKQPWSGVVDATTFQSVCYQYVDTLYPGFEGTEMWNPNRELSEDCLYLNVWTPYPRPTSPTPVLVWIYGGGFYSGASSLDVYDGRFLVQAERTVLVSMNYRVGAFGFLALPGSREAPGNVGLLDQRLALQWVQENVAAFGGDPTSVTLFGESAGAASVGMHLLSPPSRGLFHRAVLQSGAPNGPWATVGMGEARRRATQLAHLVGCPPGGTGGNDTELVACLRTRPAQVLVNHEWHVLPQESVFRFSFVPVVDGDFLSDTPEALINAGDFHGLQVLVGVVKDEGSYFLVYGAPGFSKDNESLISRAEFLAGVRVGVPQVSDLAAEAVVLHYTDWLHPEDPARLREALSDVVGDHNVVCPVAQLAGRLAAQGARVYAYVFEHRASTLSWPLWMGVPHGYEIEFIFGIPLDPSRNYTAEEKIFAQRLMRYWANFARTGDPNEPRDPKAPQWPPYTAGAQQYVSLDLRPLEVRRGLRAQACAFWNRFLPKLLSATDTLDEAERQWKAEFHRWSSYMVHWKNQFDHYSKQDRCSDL
# physchem = settings: pH 6
structure (smiles),measurement,setting,value
"C[n+]1ccccc1/C=N/O [2-PAM, 2-pralidoxime, reference compound]",Percentage of AChE species: Aged,[1],100%
same,Percentage of AChE species: Native,[1],0%
same,Percentage of AChE species: Realkylated,[1],0%
same,Percentage of AChE species: Aged,[2],100%
same,Percentage of AChE species: Native,[2],0%
same,Percentage of AChE species: Realkylated,[2],0%
"CCN(CC)Cc1ncccc1O [C7, 2-((diethylamino)methyl)pyridin-3-ol]","screening efficacy, relative activity (FIG. 3B), in words",[3],highest efficacy among C1 to C7
"Oc1cccnc1CN1CCCC1 [C8, 2-(pyrrolidin-1-ylmethyl)pyridin-3-ol]","activity in comparison of scaffolds with pyrrolidine leaving group (M series), in words",[3],only active compound in this comparison
same,reactivation (resurrection of AChE activity),[3],~2.5%
same,"screening efficacy, relative activity (FIG. 3B), in words",[3],most potent candidate in this screen
same,reactivation (resurrection of AChE activity),[4],1.25%
same,EC50,[5],1.18 mM
same,EC50,[6],5.87 mM
same,apparent reaction rate,[7],0.20 % per hour
same,resurrected relative activity,[7],20.4% and 30.4%
same,apparent reaction rate,[8],0.32 % per hour
same,resurrected relative activity,[8],32.7%
same,Percentage of AChE species: Aged,[1],84.6%
same,Percentage of AChE species: Native,[1],15.4%
same,Percentage of AChE species: Realkylated,[1],0%
same,Percentage of AChE species: Aged,[2],97.9%
same,Percentage of AChE species: Native,[2],2.1%
same,Percentage of AChE species: Realkylated,[2],0%
same,Relative activity (percentage of positive control),[9]; pH 6,0.273 ± 0.004%
same,Relative activity (percentage of positive control),[9]; pH 7,1.24 ± 0.02%
same,Relative activity (percentage of positive control),[9]; pH 8,8.47 ± 0.17%
same,Relative activity (percentage of positive control),[10]; pH 6,0.68 ± 0.06%
same,Relative activity (percentage of positive control),[10]; pH 7,1.04 ± 0.07%
same,Relative activity (percentage of positive control),[10]; pH 8,3.58 ± 0.33%
same,Relative activity (percentage of positive control),[10]; pH 9,5.27 ± 0.59%
same,aged enzyme resurrected,[11],18%
same,pKa,physchem,7 to 8
